From patent US20240025906A1 (NEURON23, INC., priority 2022, published 2024)

Experiments:
[1] = test system: JAK1/TYK2 pSTAT5 (Tyr694/699) in THP-1 cell line; test: IFNa-stimulated JAK1/TYK2 pSTAT5 (Tyr694/699) inhibition cellular assay, AlphaLISA; format: cell-based; settings: Homo sapiens; THP-1 cells, IFNa-stimulated, AlphaLISA (Assay B); read-out: Cellular_THP1_IFNa-pSTATS_TYK2
In short: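 An eight-point 6-fold titration of compound (0.04–10000 nM final) is given to THP-1 cells for 1 h before 30 min of IFNa exposure. Phospho-STAT5 is read by AlphaLISA at 615 nm. IC50 values are derived by logistic regression with bottom set to 0 and Hill slope set to −1.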

TYK2 JH2 = target: T1, TYK2 JH2 (Homo sapiens, UniProt P29597); test: TYK2 JH2 binding assay (KINOMEscan KdELECT competitive binding); settings: TYK2 JH2 domain, KINOMEscan KdELECT (Assay A); read-out: Biochemical TYK2_DiscoverX_JH2_BND_Kd
T1 construct: purchased DiscoverX (KINOMEscan KdELECT service); host or cells: E. coli BL21-derived (T7 phage display) or HEK-293
T1 sequence (P29597 589-875 limits assumed): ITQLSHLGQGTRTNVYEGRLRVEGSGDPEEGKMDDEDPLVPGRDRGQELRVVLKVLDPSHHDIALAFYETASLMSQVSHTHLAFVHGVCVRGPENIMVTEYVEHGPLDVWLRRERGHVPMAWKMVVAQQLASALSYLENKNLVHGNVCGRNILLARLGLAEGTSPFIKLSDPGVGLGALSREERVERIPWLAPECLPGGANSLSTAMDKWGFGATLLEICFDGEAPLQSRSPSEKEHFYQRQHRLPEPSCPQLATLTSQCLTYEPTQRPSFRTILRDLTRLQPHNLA
In short: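 Beads carrying a biotinylated ligand were mixed with tagged JH2 kinase and compound (11 points, 3-fold steps, 0.9% DMSO) and shaken 1 h at room temperature. After washing, kinase was released with 0.5 μM untagged ligand over 30 min and measured by qPCR to derive Kd.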

SMILES | IC50 [1] | Kd (TYK2 JH2)
CNc1ncc(-c2cc3ccc(OC)cn3n2)c2cc(NC(=O)C3CC3)ncc12 [Example 765, N-(5-(6-methoxypyrazolo[1,5-a]pyridin-2-yl)-8-(methylamino)-2,7-naphthyridin-3-yl)cyclopropanecarboxamide] | ≤ 500 nM | ≤ 100 nM
CNc1ncc(C#Cc2cc3ccc(OC)cn3n2)c2cc(NC(=O)C3CC3)ncc12 [Example 766, N-(5-((6-methoxypyrazolo[1,5-a]pyridin-2-yl)ethynyl)-8-(methylamino)-2,7-naphthyridin-3-yl)cyclopropanecarboxamide] | ≤ 500 nM | ≤ 100 nM
CNc1ncc(C#Cc2cc3ccc(F)cn3n2)c2cc(NC(=O)C3CC3)ncc12 [Example 767, N-(5-((6-fluoropyrazolo[1,5-a]pyridin-2-yl)ethynyl)-8-(methylamino)-2,7-naphthyridin-3-yl)cyclopropanecarboxamide] | ≤ 500 nM | ≤ 100 nM
CNc1ncc(C#Cc2ccc(OC[C@@H]3COCCO3)cc2)c2cc(NC(=O)C3CC3)ncc12 [Example 768, (S)—N-(5-((4-((1,4-dioxan-2-yl)methoxy)phenyl)ethynyl)-8-(methylamino)-2,7-naphthyridin-3-yl)cyclopropanecarboxamide] | ≤ 500 nM | ≤ 100 nM
CNc1ncc(C#Cc2ccc(P(C)(C)=O)cc2)c2cc(NC(=O)C3CC3)ncc12 [Example 769, N-(5-((4-(dimethylphosphoryl)phenyl)ethynyl)-8-(methylamino)-2,7-naphthyridin-3-yl)cyclopropanecarboxamide] | ≤ 500 nM | ≤ 100 nM
CCC(=O)N1CC(Oc2ccc(C#Cc3cnc(NC)c4cnc(NC(=O)C5CC5)cc34)cc2)C1 [Example 770, N-(8-(methylamino)-5-((4-((1-propionylazetidin-3-yl)oxy)phenyl)ethynyl)-2,7-naphthyridin-3-yl) cyclopropanecarboxamide] | ≤ 500 nM | ≤ 100 nM
CNc1ncc(C#Cc2ccc(OC3CN(C(=O)C4CC4)C3)cc2)c2cc(NC(=O)C3CC3)ncc12 [Example 771, N-(5-((4-((1-(cyclopropanecarbonyl)azetidin-3-yl)oxy)phenyl)ethynyl)-8-(methylamino)-2,7-naphthyridin-3-yl)cyclopropanecarboxamide] | ≤ 500 nM | ≤ 100 nM
CNc1ncc(C#Cc2ccc(-n3nccn3)cc2)c2cc(NC(=O)C3CC3)ncc12 [Example 772, N-(5-((4-(2H-1,2,3-triazol-2-yl)phenyl)ethynyl)-8-(methylamino)-2,7-naphthyridin-3-yl)cyclopropanecarboxamide] | ≤ 500 nM | ≤ 100 nM
CNc1ncc(C#Cc2ccc3nc(C(C)(F)F)n(C)c3c2)c2cc(NC(=O)C3CC3)ncc12 [Example 773, N-(5-((2-(1,1-difluoroethyl)-1-methyl-1H-benzo[d]imidazol-6-yl)ethynyl)-8-(methylamino)-2,7-naphthyridin-3-yl)cyclopropanecarboxamide] | ≤ 500 nM | ≤ 100 nM
CNc1ncc(C#Cc2ccc3nc(CC(F)(F)F)n(C)c3c2)c2cc(NC(=O)C3CC3)ncc12 [Example 774, N-(5-((1-methyl-2-(2,2,2-trifluoroethyl)-1H-benzo[d]imidazol-6-yl)ethynyl)-8-(methylamino)-2,7-naphthyridin-3-yl)cyclopropanecarboxamide] | ≤ 500 nM | ≤ 100 nM
CNc1ncc(C#Cc2ccc3nc(C(F)F)n(C)c3c2)c2cc(NC(=O)[C@H]3C[C@H]3C)ncc12 [Example 775, (1S,2R)—N-(5-((2-(difluoromethyl)-1-methyl-1H-benzo[d]imidazol-6-yl)ethynyl)-8-(methylamino)-2,7-naphthyridin-3-yl)-2-methylcyclopropane-1-carboxamide] | ≤ 500 nM | ≤ 100 nM
[2H]C([2H])([2H])Nc1ncc(C#Cc2ccc(OC)cn2)c2cc(NC(=O)C3CC3)ncc12 [Example 778, N-(5-((5-methoxypyridin-2-yl)ethynyl)-8-((methyl-d3)amino)-2,7-naphthyridin-3-yl)cyclopropanecarboxamide] | ≤ 500 nM | ≤ 100 nM
[2H]C([2H])([2H])Nc1ncc(C#Cc2ccc(OC)cn2)c2cc(NC(=O)[C@H]3C[C@H]3C)ncc12 [Example 779, (1S,2R)—N-(5-((5-methoxypyridin-2-yl)ethynyl)-8-((methyl-d3)amino)-2,7-naphthyridin-3-yl)-2-methylcyclopropane-1-carboxamide] | ≤ 500 nM | ≤ 100 nM
CCc1nc(NC)c2cnc(NC(=O)C3CC3)cc2c1C#Cc1ccc(OC)cc1 [Example 780, N-(6-ethyl-5-((4-methoxyphenyl)ethynyl)-8-(methylamino)-2,7-naphthyridin-3-yl)cyclopropanecarboxamide] | > 500 nM | ≤ 100 nM
CNc1nc(C)c(C#Cc2ccc(OC)cc2)c2cc(NC(=O)C3CC3)ncc12 [Example 781, N-(5-((4-methoxyphenyl)ethynyl)-6-methyl-8-(methylamino)-2,7-naphthyridin-3-yl)cyclopropanecarboxamide] | > 500 nM | ≤ 100 nM
CNc1ncc(/C=C/c2ccc(OCCOC)cc2)c2cc(NC(=O)C3CC3)ncc12 [Example 782, (E)-N-(5-(4-(2-methoxyethoxy)styryl)-8-(methylamino)-2,7-naphthyridin-3-yl)cyclopropanecarboxamide] | ≤ 500 nM | ≤ 100 nM
CNc1ncc(/C=C/c2ccc(CC#N)cc2)c2cc(NC(=O)C3CC3)ncc12 [Example 783, (E)-N-(5-(4-(cyanomethyl)styryl)-8-(methylamino)-2,7-naphthyridin-3-yl)cyclopropanecarboxamide] | ≤ 500 nM | ≤ 100 nM
CNc1ncc(/C=C/c2ccc(OCC(C)(C)O)cc2)c2cc(NC(=O)C3CC3)ncc12 [Example 784, (E)-N-(5-(4-(2-hydroxy-2-methylpropoxy)styryl)-8-(methylamino)-2,7-naphthyridin-3-yl)cyclopropanecarboxamide] | ≤ 500 nM | ≤ 100 nM
C=C(c1ccc(OCC(C)(C)O)cc1)c1cnc(NC)c2cnc(NC(=O)C3CC3)cc12 [Example 785, N-(5-(1-(4-(2-hydroxy-2-methylpropoxy)phenyl)vinyl)-8-(methylamino)-2,7-naphthyridin-3-yl)cyclopropanecarboxamide] | > 500 nM | ≤ 100 nM
CNc1ncc(/C=C/c2ccc(N3C[C@@H](C)O[C@@H](C)C3)cc2)c2cc(NC(=O)C3CC3)ncc12 [Example 786, N-(5-((E)-4-((2R,6S)-2,6-dimethylmorpholino)styryl)-8-(methylamino)-2,7-naphthyridin-3-yl)cyclopropanecarboxamide] | ≤ 500 nM | ≤ 100 nM
CNc1ncc(/C=C/c2ccc(N3CCO[C@@H](C)C3)cc2)c2cc(NC(=O)C3CC3)ncc12 [Example 787, (S,E)-N-(8-(methylamino)-5-(4-(2-methylmorpholino)styryl)-2,7-naphthyridin-3-yl)cyclopropanecarboxamide] | ≤ 500 nM | ≤ 100 nM
C=C(c1ccc(N2CCO[C@@H](C)C2)cc1)c1cnc(NC)c2cnc(NC(=O)C3CC3)cc12 [Example 788, (S)—N-(8-(methylamino)-5-(1-(4-(2-methylmorpholino)phenyl)vinyl)-2,7-naphthyridin-3-yl)cyclopropanecarboxamide] | > 500 nM | 100 to 1000 nM
CNc1ncc(/C=C/c2ccc(N3CCOCC3)cc2)c2cc(NC(=O)C3CC3)ncc12 [Example 792, (E)-N-(8-(methylamino)-5-(4-morpholinostyryl)-2,7-naphthyridin-3-yl)cyclopropanecarboxamide] | ≤ 500 nM | ≤ 100 nM
C=C(c1ccc(N2CCOCC2)cc1)c1cnc(NC)c2cnc(NC(=O)C3CC3)cc12 [Example 793, N-(8-(methylamino)-5-(1-(4-morpholinophenyl)vinyl)-2,7-naphthyridin-3-yl)cyclopropanecarboxamide] | > 500 nM | ≤ 100 nM
CNc1ncc(/C=C/c2ccc(OCCC#N)cc2)c2cc(NC(=O)C3CC3)ncc12 [Example 794, (E)-N-(5-(4-(2-cyanoethoxy)styryl)-8-(methylamino)-2,7-naphthyridin-3-yl)cyclopropanecarboxamide] | ≤ 500 nM | ≤ 100 nM
CNc1ncc(/C=C/c2ccc(O)cc2)c2cc(Nc3ccccn3)ncc12 [Example 795, (E)-4-(2-(1-(methylamino)-6-(pyridin-2-ylamino)-2,7-naphthyridin-4-yl)vinyl)phenol] | ≤ 500 nM | ≤ 100 nM
CNc1ncc(-c2cc3ccc(N4CCOCC4)cn3n2)c2cc(NC(=O)C3CC3)ncc12 [Example 796, N-(8-(methylamino)-5-(6-morpholinopyrazolo[1,5-a]pyridin-2-yl)-2,7-naphthyridin-3-yl)cyclopropanecarboxamide] | ≤ 500 nM | ≤ 100 nM
CNc1ncc(-c2cc3ccc(N4CCO[C@@H](C)C4)cn3n2)c2cc(NC(=O)[C@H]3C[C@H]3C)ncc12 [Example 798, (1S,2R)-2-methyl-N-(8-(methylamino)-5-(6-((S)-2-methylmorpholino)pyrazolo[1,5-a]pyridin-2-yl)-2,7-naphthyridin-3-yl)cyclopropane-1-carboxamide] | ≤ 500 nM | ≤ 100 nM
